Measured values taken from PubChem BioAssay (NCI).
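Exposure lasted 48 hours, with cells grown in 96-well plates and compounds tested at five concentrations. The concentration for 50% growth inhibition is given as GI50. Definition used: TGI = concentration required for complete inhibition of growth.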

What was measured:
Assay in all cases: NCI anticancer screen, dose series, 48 h
[1] = system: OVCAR-5 ovarian
[2] = system: U251 CNS
[3] = system: HS 578T breast
[4] = system: MDA-MB-435
[5] = system: MDA-MB-231 breast
[6] = system: SK-OV-3 ovarian
[7] = system: IGROV1 ovarian
[8] = system: M14 melanoma
[9] = system: SK-MEL-28 melanoma
[10] = system: DU-145 prostate
[11] = system: T-47D breast
[12] = system: RXF 393 renal
[13] = system: MALME-3M melanoma
[14] = system: NCI-H460 lung

| Molecule | TGI [1] [µM] | TGI [2] [µM] | TGI [3] [µM] | TGI [4] [µM] | TGI [5] [µM] | TGI [6] [µM] | TGI [7] [µM] | TGI [8] [µM] | TGI [9] [µM] | TGI [10] [µM] | TGI [11] [µM] | TGI [12] [µM] | GI50 [1] [µM] | GI50 [6] [µM] | GI50 [8] [µM] | GI50 [9] [µM] | GI50 [12] [µM] | TGI [13] [µM] | TGI [14] [µM] |
| --- | --- | --- | --- | --- | --- | --- | --- | --- | --- | --- | --- | --- | --- | --- | --- | --- | --- | --- | --- |
| N#Cc1nc(C(=O)c2ccccc2)oc1N | > 100 | > 100 | > 100 | > 100 | > 100 | > 100 | > 100 | > 100 | > 100 | > 100 |  |  |  |  |  |  |  |  |  |
| N#CC(NNC(=O)c1c(Cl)c(Cl)c(Cl)c(Cl)c1-c1nc2ccc(C(=O)c3ccccc3)cc2[nH]1)c1cccc(Oc2ccccc2)c1 (configuration not stated) | 80.3 | > 100 |  | 53.6 | 45.2 | > 100 | 93.1 | 83.9 | 74.1 | > 100 | 76.2 | 55.5 |  |  |  |  |  |  |  |
| H-KIFKKFKTIIKKVWRIFGRF-NH2 | 4.28 |  |  |  |  | 7.39 |  | > 100 | 5.02 |  |  | 5.19 | 2.1 | 3.17 | 2.37 | 2.21 | 2.09 |  |  |
| S=C1NNC(=S)NN1 |  | > 1 | > 1 |  | > 1 | > 1 | > 1 | > 1 | > 1 | > 1 | > 1 |  |  |  |  |  |  | > 1 | > 1 |
| Cc1cccc(-c2cc(=O)c3cc(C)cnc3[nH]2)c1 | > 100 | > 100 |  |  |  | > 29.6 | > 100 | > 100 | > 100 | 13.3 | > 100 | > 100 |  |  |  |  |  | > 100 | 13.1 |
| Cc1cnc2[nH]c(-c3sccc3C)cc(=O)c2c1 | > 100 | > 100 | 6.01 |  | > 100 | > 100 | > 100 | > 33.4 | > 100 | > 100 | > 100 | > 28.4 |  |  |  |  |  | > 100 | > 100 |
| CC1[C@@H]2C[C@@H]3O[C@@]34[C@H]3CCC5Cc6nc7c(nc6C[C@@]5(C)C3(O)CC(=O)[C@@]24CO[C@]12OC(C)(C)CC2O)CC1CC[C@@H]2C3=C[C@H]4O[C@@]5(O[C@@](C)(CO)C[C@@H]5O)C(C)[C@@]4(O)[C@]3(C)[C@@H](O)CC2[C@]1(C)C7 (some centres not stated) | 0.218 | 0.332 |  |  |  | 0.231 | > 3.52 |  |  |  |  | 0.0296 |  |  |  |  |  | 0.247 | 0.479 |
| CC(=O)c1c2c(cc3c1CCC3)CCC2 | > 100 | > 100 | > 100 | > 100 | > 100 | > 100 | > 100 | > 100 | > 100 | > 100 | 46.8 |  |  |  |  |  |  | > 100 | > 100 |
| COc1ccc(C(OCC2OC(n3ccc(Oc4c(F)c(F)c(F)c(F)c4F)nc3=O)CC2OP(OCCC#N)N(C(C)C)C(C)C)(c2ccccc2)c2ccc(OC)cc2)cc1 (configuration not stated) | > 100 | > 100 | > 100 | > 100 | > 100 | > 100 | > 100 | > 100 | > 100 | > 100 | > 100 | > 100 |  |  |  |  |  |  | > 100 |
| NC(=O)c1nnc2c(F)cccc2c1N | > 100 | > 100 | > 100 | > 100 | > 100 | > 100 | > 100 | > 100 |  | > 100 | > 100 |  |  |  |  |  |  | > 100 | > 100 |
| C/C(=C\c1ccccc1)n1c(=O)cc(C)n1C | > 100 | > 100 | > 100 | > 100 |  | > 100 | > 100 | > 100 | > 100 | > 100 | > 100 | > 100 |  |  |  |  |  |  | > 100 |
| O=C1CSC2=NC3=C(COC/C3=C\c3ccc(F)cc3)C(c3ccc(F)cc3)N12 (configuration not stated) | > 100 | > 100 | > 100 | > 100 | > 100 | > 100 | > 100 | > 100 |  | > 100 | > 100 | > 100 |  |  |  |  |  |  | > 100 |
| CC(=O)O[C@H]1CC[C@]2(C=O)[C@H]3CC[C@]4(C)[C@@H](C5=CC(=O)OC5)CC[C@]4(O)[C@@H]3CC[C@]2(O)C1 | 1.87 | 0.559 | > 100 | 0.984 | 3.14 | 0.802 | 3.99 | 1.22 | 3.22 | 0.391 | 2.68 |  |  |  |  |  |  | 0.566 | 0.274 |
| COC1OC(=O)C(OC)C(OC)C1OC (configuration not stated) | > 100 | > 100 | > 100 | > 100 | > 100 | > 100 | > 100 | > 100 | > 100 | > 100 | > 100 |  |  |  |  |  |  |  | > 100 |
| CC1CN=C(N(C(=O)Nc2ccccc2)C2CCCCC2)S1 (configuration not stated) | 28.9 | 30.8 | 50 |  | 29.9 | > 100 | 35.6 |  | 28.2 | 69.7 | 92.7 |  |  |  |  |  |  | 32 | 33.9 |
| Cc1cc(N)c2cc(NC(=O)CCCCCCCCC(=O)Nc3ccc4nc(C)cc(N)c4c3)ccc2n1 | > 100 | 49.3 |  |  |  | > 100 | > 100 | > 100 | 97 |  |  | > 100 |  |  |  |  |  | 68.8 | > 100 |
| N#Cc1nc(-c2ccccn2)c(-c2ccccn2)nc1C#N | 10 | > 37.3 | 29.1 | 22.4 | > 53 | 7.26 | 22.2 | 8.46 | 45.6 | 12.7 | 9.5 | 15.9 |  |  |  |  |  |  | > 35.1 |
| CN1CCN(C2CC(=O)c3c(Cl)sc(Cl)c32)CC1 (configuration not stated) | > 60.8 | 36 | > 23.7 | 16.5 | 48 | > 90 | > 25.6 | 20.7 | 20.2 | 30.2 | > 45.9 |  |  |  |  |  |  | > 50.3 | > 75.3 |
| C/C(=N\Nc1nc2ccccc2n1C)c1ccncn1 | > 100 | > 32.9 | > 100 |  | > 76.6 | > 100 |  | 0.44 | 0.168 | > 44.7 | > 100 |  |  |  |  |  |  | > 100 | > 100 |
